Experimental data taken from US20230190717A1, “P38 GAMMA INHIBITORS AND METHOD OF USE THEREOF” (City of Hope, priority 2017, published 2023).
“Also recorded” adds a separate entry of the source.

Assays:
Hut78 cells [1] = experiment: CellTiterGlo cell viability, Hut78; format: cell-based, human; settings: for effect on viability of Hut78 cells: varying concentrations, 72 hr; for IC50: Homo sapiens, HuT78, 72 h
Description: (§2) Viability assays using trypan blue exclusion and CellTiterGlo Cell Viability Assay: Cell viability was calculated by diluting cell suspensions 1:1 in 0.4% TRYPAN BLUE solution (Sigma, St. Louis, Mo.) and counting the number of viable cells using a TC20™ automated cell counter (Bio-Rad, Irvine, Calif.) that automatically excludes the number of non-viable cells stained with trypan blue per total cells. […] All data points are an average of triplicate experiments.
(§3) Absorbance was monitored at 490 nm using an automated BMG PHERAstar plate reader (BMG Labtech). […] All experiments are repeated in three independent experiments and data represented are the average of triplicate experiments.

[2] = tested on: phosphorylation of Akt at ser473; experiment: Western blot of Akt Ser473 phosphorylation in Hut78; format: cell-based, human; settings: Hut78, 4 hr treatment
Description: Western blot: Western blots were performed as described previously [5]. Rabbit primary antibodies (Cell Signaling Technology (CST), Danvers, Mass.) were used at the following dilutions: anti-p38α, -p38β, -p38γ, and -p38δ (1:1000), anti-B-tubulin (1:2000), anti-p38 GAPDH 1:1000. […] For detection of p38γ protein level in SS patient samples we used a monoclonal antibody that close to N-terminus of human p38γ MAPK (SAPK3) from Abcam ((ab205926).

p38 γ = molecular target: T1, p38 γ (Homo sapiens, UniProt P53778); experiment: ADP-Glo in vitro kinase assay, p38γ; format: biochemical; design: human recombinant p38 α, β, γ or δ protein (active full-length); purchased SignalChem; host or cells: baculovirus in Sf9 insect cells; settings: for inhibitory kinase activity against p38γ: PI3K inhibitors at 1 and 10 μM; for IC50: in vitro inhibition assay
T1 sequence (P53778 1-367): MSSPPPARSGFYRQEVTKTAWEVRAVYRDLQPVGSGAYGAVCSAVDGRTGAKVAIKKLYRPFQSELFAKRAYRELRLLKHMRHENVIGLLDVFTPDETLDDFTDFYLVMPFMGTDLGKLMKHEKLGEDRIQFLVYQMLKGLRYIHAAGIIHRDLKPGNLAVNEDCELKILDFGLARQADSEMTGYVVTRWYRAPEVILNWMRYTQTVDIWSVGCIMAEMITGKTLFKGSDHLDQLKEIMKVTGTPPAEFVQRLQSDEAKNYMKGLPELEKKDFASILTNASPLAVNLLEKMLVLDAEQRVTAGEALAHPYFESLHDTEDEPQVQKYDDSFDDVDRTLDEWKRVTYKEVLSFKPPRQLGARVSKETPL
Description: All compounds are cell-permeable, reversible and well-characterized. For the biochemical screening, kinase assays in vitro were performed using ADP-Glo kit (Promega). The luminescent ADP-Glo kinase assay measures ADP produced from ATP consumption in the reaction.
Kinase assay in vitro: Kinase enzyme assays in vitro were performed using ADP-Glo kit (Promega, Wis.). The luminescent ADP-Glo kinase assay measures ADP produced from ATP consumption in a kinase enzyme reaction. […] Briefly, in this experiment, human recombinant p38 α, β, γ or δ protein (active full-length) expressed by baculovirus in sf9 insect cells (SignalChem, Vancouver, Canada) was homogenized in wells of white opaque 96-well microplates with the kinase buffer that consisted of 40 mM Tris-HCl (pH 7.5), 20 mM MgCl2, 0.1 mg/mL BSA and 50 μM DTT. […] Next, synthetic peptide substrates ([sequence]) were added to the mixture at final concentration of 0.2 μg/μL, followed by adding ATP at various concentrations. The 50 μL mixture was reacted at room temperature for 60 min. Then, ADP-Glo Reagent was incubated in the mixture at room temperature for 40 min, followed by incubation of Kinase Detection Reagent for another 30 min with minor modification as described in the supplier's instruction. Luminescence was measured at an integration time of 0.5 second using an automated BMG PHERAstar plate reader (BMG Labtech). Each experiment was conducted in duplicate or triplicate. […] IC50 values were determined using CalcuSyn software (Biosoft).
IC50 values were determined using CalcuSyn software (Biosoft) based on the data of Figure a.
IC50 values were determined using CalcuSyn software (Biosoft).
All compounds are cell-permeable, reversible, and well-characterized. For the biochemical screening, kinase assays in vitro were performed using ADP-GLO kit (Promega) following manufactures instructions. […] Briefly, for in vitro assay experiments, human recombinant p38 α, β, γ or δ proteins (active full-length) were from [sequence], and followed the protocol of the company. […] Then, ADP-GLO REAGENT was incubated in the mixture at room temperature for 40 min, followed by incubation of Kinase Detection Reagent for another 30 min. IC50 values were determined using [sequence] software (Biosoft, Cambridge, United Kingdom).

p38γ [3] = molecular target: T2, p38γ (Mus musculus, UniProt O08911); settings: requires a high dose; cited from earlier work
T2 construct: host or cells: mice (in vivo)
T2 sequence (O08911 whole entry): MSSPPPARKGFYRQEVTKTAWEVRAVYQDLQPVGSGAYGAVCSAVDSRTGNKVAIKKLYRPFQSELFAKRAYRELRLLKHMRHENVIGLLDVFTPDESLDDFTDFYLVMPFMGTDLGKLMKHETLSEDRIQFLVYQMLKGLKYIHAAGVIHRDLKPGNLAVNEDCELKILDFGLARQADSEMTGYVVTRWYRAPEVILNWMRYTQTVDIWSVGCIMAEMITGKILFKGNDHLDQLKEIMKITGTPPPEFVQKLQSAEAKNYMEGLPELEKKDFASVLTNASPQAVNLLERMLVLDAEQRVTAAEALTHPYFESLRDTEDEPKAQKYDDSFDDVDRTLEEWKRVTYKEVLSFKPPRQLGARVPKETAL

HH cells = experiment: CellTiterGlo cell viability, HH; format: cell-based; settings: Homo sapiens, 72 h
Description: as §2, §3

H9 cells = experiment: CellTiterGlo cell viability, H9; settings: Homo sapiens, H9, 72 h
Description: as §2, §3

CTCL cells [4] = experiment: Cell viability, CTCL cells (pirfenidone); format: cell-based; settings: Homo sapiens, read-out: IC50 CTCL cell growth / cell killing
p38γ [5] = experiment: Time-resolved fluorescence energy transfer enzyme kinetic analysis; format: biochemical
p38γ [6] = experiment: p38γ inhibition at the concentration used in the RNAi library screen; settings: 10 uM, data not shown
Excerpt: Synthetic lethal RNAi screen. We will use a synthetic lethal RNAi screen in the presence of sub-lethal p38γ inhibition to identify critical downstream signaling components in CTCL (FIG. 31). We will transduce control and p38γ inhibitor-treated Hut78 CTCL cells with a pooled retroviral RNAi library that targets genes involved in human cancers. Because loss of p38γ alone causes CTCL cell death, we will titrate the dose and/or length of exposure to the p38γ inhibitor to ensure a sub-lethal effect. The target gene of an shRNA that causes death in cells treated with sub-lethal p38γ inhibitor but not control cells will be identified as synthetic lethal/synergistic. Based on our preliminary data showing synergy between F7 and HDACi, we are expecting to identify HDAC family members in the RNAi screen. We will further narrow down the corresponding HDACi for each HDAC member identified, and study potential synergistic effects to achieve of killing CTCL cells. For example, our preliminary data has shown using an RNAi library plus the p38 inhibitor Ly2228820, we have successfully selected loss of HDAC3 as a synergistically lethal element to p38 pathway inhibition, including α, β, and γ isoforms of p38 by LY2228820 (10 uM) […] We will further test the combination of p38γ inhibition with several HDAC3 inhibitors (e.g., RGFP966) for further mechanistic study in Hut78 cells.

p38γ [7] = experiment: p38γ mRNA level and protein expression (Western blot); format: cell-based; settings: Western blot, 24 hr, 500 nM
Excerpt: qRT-PCR (real-time quantitative reverse transcription PCR): Total RNA was generated using TRIZOL reagent (Life Technologies, Carlsbad, Calif.) followed by double DNase treatment and column purification using Qiagen RNeasy Clean-up (Qiagen, Germantown, Md.). The Invitrogen […] III First-Strand Synthesis System was used for cDNA synthesis and TaqMan 5700 Sequence Detection System (Applied Biosystems, Foster City, Calif.) were used for qRT-PCR. All PCR reactions were run in triplicate. The amplified transcripts were quantified using the comparative CT method as described. cDNA and primers for MAPK11, 12, 13, and 14 and GAPDH (Table 9) were added to SYBR GREEN PCR Master Mix (SYBR Green I Dye, […]® DNA polymerase, dNTPs with dUTP and optimal buffer components; Applied Biosystems) and subjected to PCR amplification (1 cycle at 95° C. for 3 min; 35 cycles at 95° C. for 15 s and 55° C. for 30 s; 1 cycle at 50° C. for 2 min).

SS patient cells = experiment: Apoptosis and growth in primary SS patient cells; format: cell-based, human
Hut78 xenografts = experiment: Hut78 xenograft tumor growth in mice; format: in vivo
healthy CD4+ T cells = experiment: Apoptosis and growth in healthy CD4+ T cells; format: cell-based, human; settings: FIG. 19E
PI3Kγ = PI3Kγ (Homo sapiens, UniProt P48736); settings: PI3Kγ isoform; cited from earlier work
Chain of PI3Kγ (P48736 whole entry, canonical isoform): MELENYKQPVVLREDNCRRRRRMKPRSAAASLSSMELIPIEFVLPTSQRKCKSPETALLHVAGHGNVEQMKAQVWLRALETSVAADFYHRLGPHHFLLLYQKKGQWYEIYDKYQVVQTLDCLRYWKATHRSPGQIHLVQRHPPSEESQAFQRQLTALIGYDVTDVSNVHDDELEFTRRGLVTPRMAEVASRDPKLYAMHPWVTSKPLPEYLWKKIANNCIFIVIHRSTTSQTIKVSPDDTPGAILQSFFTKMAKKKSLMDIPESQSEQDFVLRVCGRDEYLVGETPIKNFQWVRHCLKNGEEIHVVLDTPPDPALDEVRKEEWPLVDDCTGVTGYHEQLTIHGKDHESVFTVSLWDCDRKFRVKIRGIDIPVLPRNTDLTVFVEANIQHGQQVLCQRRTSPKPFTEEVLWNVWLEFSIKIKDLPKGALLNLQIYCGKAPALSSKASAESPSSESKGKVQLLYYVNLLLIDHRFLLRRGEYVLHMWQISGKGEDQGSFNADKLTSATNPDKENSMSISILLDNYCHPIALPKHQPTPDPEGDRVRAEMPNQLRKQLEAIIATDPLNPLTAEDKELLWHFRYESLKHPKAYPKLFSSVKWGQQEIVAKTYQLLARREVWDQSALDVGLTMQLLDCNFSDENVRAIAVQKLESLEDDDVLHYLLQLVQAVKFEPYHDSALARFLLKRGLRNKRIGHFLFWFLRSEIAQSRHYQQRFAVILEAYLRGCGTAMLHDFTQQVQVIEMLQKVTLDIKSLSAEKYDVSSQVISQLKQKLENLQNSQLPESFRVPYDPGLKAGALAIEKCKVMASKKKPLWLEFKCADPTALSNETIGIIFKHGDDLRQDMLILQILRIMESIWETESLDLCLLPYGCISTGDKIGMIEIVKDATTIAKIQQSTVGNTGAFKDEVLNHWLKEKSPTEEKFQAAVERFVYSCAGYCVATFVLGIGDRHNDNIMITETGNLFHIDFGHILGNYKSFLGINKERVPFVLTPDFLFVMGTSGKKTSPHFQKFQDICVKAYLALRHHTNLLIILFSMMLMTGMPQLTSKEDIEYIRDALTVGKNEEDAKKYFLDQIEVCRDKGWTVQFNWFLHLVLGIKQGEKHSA

CTCL cells [8] = experiment: CTCL cell growth / killing; format: cell-based
p38δ = molecular target: T3, p38δ (Homo sapiens, UniProt O15264); experiment: p38 isoform kinase activity (FIG. 20A); format: biochemical; design: human recombinant p38 α, β, γ or δ protein (active full-length); purchased SignalChem; host or cells: baculovirus in Sf9 insect cells; settings: p38δ (printed "6")
T3 sequence (O15264 1-365): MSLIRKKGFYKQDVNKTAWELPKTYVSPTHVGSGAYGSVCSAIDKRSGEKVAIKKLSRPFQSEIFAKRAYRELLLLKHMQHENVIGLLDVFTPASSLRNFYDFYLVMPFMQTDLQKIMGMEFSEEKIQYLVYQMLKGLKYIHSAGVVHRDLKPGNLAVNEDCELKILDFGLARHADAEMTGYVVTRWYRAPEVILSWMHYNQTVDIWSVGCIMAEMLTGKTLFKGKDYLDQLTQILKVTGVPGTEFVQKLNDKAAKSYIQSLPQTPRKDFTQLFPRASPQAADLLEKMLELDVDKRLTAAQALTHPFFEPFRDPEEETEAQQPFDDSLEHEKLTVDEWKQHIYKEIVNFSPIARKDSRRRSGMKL

[9] = tested on: p38γ substrate DLGH1 at Ser158; experiment: Immunohistochemistry in F7-treated CTCL xenograft mouse tissue; format: in vivo; settings: data not shown
[10] = tested on: PBMCs isolated from an SS patient; experiment: Annexin V/PI flow cytometry, SS patient PBMCs; format: cell-based, human; settings: SS PBMC, 200 nM, 24 h
Excerpt: (§1) Data presented are one experiment in triplicate.

Hut78 CTCL cell line = experiment: Annexin V/PI flow cytometry, Hut78; format: cell-based, human; settings: Hut78, 200 nM, 24 h
Excerpt: as §1

p38γ [11] = experiment: p38 isoform kinase activity (FIG. 20A); format: biochemical
Hut78 cells [12] = experiment: Hut78 cell proliferation / viability; format: cell-based, human
[13] = tested on: p38γ substrate DLGH1 at Ser158; experiment: Western blot of Hut78 cells for phosphorylation of p38γ substrate; format: cell-based, human

With `Cc1nc(NC(=O)N2CCC[C@H]2C(N)=O)sc1-c1csc(C(C)(C)C)n1` [Compound A66] the “effect on viability of Hut78 cells” value (Hut78 cells [1]) was “no influence”, the “phosphorylation of Akt at ser473” value [2] was “dose-dependent inhibition” and the “inhibitory kinase activity against p38γ” value (p38 γ) was “no inhibitory kinase activities; also recorded: doesn't inhibit”.
For `Cc1ccc(=O)n(-c2ccccc2)c1` [Pirfenidone], the “p38γ inhibition in mice” value (p38γ [3]) is listed as “inhibits p38γ in mice”, the IC50 (Hut78 cells [1]) is listed as > 125000 nM and the IC50 (p38 γ) is listed as > 125000 nM. For the same compound, the IC50 (HH cells) was > 125000 nM, the IC50 (H9 cells) was > 125000 nM and the IC50 (CTCL cells [4]) was > 125000 nM.
`Nc1ncnc2c1ncn2[C@@H]1O[C@H](COP(=O)(O)OP(=O)(O)OP(=O)(O)O)[C@@H](O)[C@H]1O` [ATP] showed a Km (p38γ [5]; p38γ, read-out: ATP Km) of 3.2 ± 0.4 µM.
Compound `Cc1ccc([N+](=O)[O-])cc1S(=O)(=O)N(C)/N=C/c1cnc2ccc(-c3ccc(F)nc3)cn12` [Compound F7D10] has an IC50 (Hut78 cells [1]) of ~2500 nM and an IC50 (p38 γ) of ~3400 nM.
For `CC(C)(C)Cn1c(N)nc2ccc(-c3[nH]c(C(C)(C)C)nc3-c3ccc(F)cc3)nc21` [LY2228820], the p38γ inhibition (p38γ [6]) was “caused p38γ inhibition”.
With `CS(=O)(=O)N1CCN(Cc2cc3nc(-c4cccc5[nH]ncc45)nc(N4CCOCC4)c3s2)CC1` [GDC-0941, Pictilisib] the “effect on viability of Hut78 cells” value (Hut78 cells [1]) was “only modest reduction of cell viability” and the “inhibitory kinase activity against p38γ” value (p38 γ) was “no inhibitory kinase activities”.
For `Cc1ccc([N+](=O)[O-])cc1S(=O)(=O)N(C)/N=C/c1cnc2ccc(Br)cn12` [Compound F7], the IC50 (Hut78 cells [1]) was 42 nM, the “protein expression of p38 gamma” value (p38γ [7]) was “reduces and eliminates the protein expression” and the inhibition of growth (SS patient cells; FIG. 19E) was “inhibition of growth”. For the same compound, the induction of apoptosis (SS patient cells; data not shown) was “selective induction of apoptosis”, the “inhibition of tumor growth” value (Hut78 xenografts; 2 mg/kg, p=0.015, versus vehicle control) was “statistically significant dose-dependent inhibition of tumor growth” and the “inhibition of tumor growth” value (Hut78 xenografts; 10 mg/kg, p=0.025, versus vehicle control) was “statistically significant dose-dependent inhibition of tumor growth”. For the same compound, the inhibition of growth (healthy CD4+ T cells) was “but not healthy CD4+ T cells”, the mechanism of inhibition (p38γ [5]; versus ATP) was “competitive mechanism” and the IC50 (PI3Kγ) was 76 nM. For the same compound, the “killing of CTCL cells” value (CTCL cells [8]) was “selectively kills CTCL cells at nanomolar concentrations”, the “effectiveness against CTCL cells” value (CTCL cells [8]; compared with PI3K-specific inhibitor A66, FIG. 28) was “more effective against CTCL cells than a PI3K-specific inhibitor” and the “inhibition of CTCL cell growth” value (CTCL cells [8]; compared with Vorinostat (SAHA)) was “more potent inhibitor of CTCL cell growth than the FDA-approved HDACi Vorinostat”. For the same compound, the IC50 (HH cells) was 34 nM, the IC50 (H9 cells) was 46 nM and the “inhibition of kinase activity” value (p38δ) was “selective, dose-dependent inhibition”. For the same compound, the “phosphorylation of p38γ substrate DLGH1 at Ser158” value [9] was “reduced phosphorylation”, the AnnexV_PI [10] was 17.8 Percentage and the Live cells [10] was 42.797 Percentage. For the same compound, the “PI Stained” value [10] was 35.2 Percentage, the AnnexV_PI (Hut78 CTCL cell line) was 25.5 Percentage and the Live cells (Hut78 CTCL cell line) was 44.48 Percentage. The “PI Stained” value (Hut78 CTCL cell line) was 29.53 Percentage, the “inhibition of kinase activity” value (p38γ [11]) was “selective, dose-dependent inhibition” and the “cell viability in Hut78 cells” value (Hut78 cells [12]; FIG. 19B / FIG. 29A) was “reduced cell viability”. For the same compound, the inhibition of growth (Hut78 cells [12]; Hut78 CTCL cells, FIG. 19E) was “inhibition of growth”, the induction of apoptosis (Hut78 cells [12]; Hut78 CTCL cells, data not shown) was “selective induction of apoptosis” and the “proliferation of Hut78 cells” value (Hut78 cells [12]; compared with Pirfenidone, FIG. 7) was “reduced proliferation of Hut78 cells more effectively than Pirfenidone”. The “phosphorylation of p38γ substrate DLGH1 at Ser158” value [13] was “reduced phosphorylation”.
With `Cn1c(=O)n(-c2ccc(C(C)(C)C#N)cc2)c2c3cc(-c4cnc5ccccc5c4)ccc3ncc21` [BEZ235, Dactolisib] the “effect on viability of Hut78 cells” value (Hut78 cells [1]) was “only modest reduction of cell viability” and the “inhibitory kinase activity against p38γ” value (p38 γ) was “no inhibitory kinase activities”.
